Blank lines part the entries; values can stand above or below the sequence they belong to.
Target: T1, MAL^TIR (Homo sapiens, UniProt P58753)
T1 construct: MAL (residues 79–221); 6xHis; made in house; host or cells: E. coli BL21 (DE3)
Assay: T‐Surf phage library (P8 and P3) selection against MAL^TIR, four rounds, NGS read counts
Assay type: binding
Conditions: for P3_MAL Rank (after) / P3_MAL Rank (before): P3 library; for P8_MAL Rank (after) / P8_MAL Rank (before): P8 library; for Population: P3_MAL pool: P3 T-Surf phage library, 4th round of selection against MAL TIR, share of NGS reads
How it was run: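 Coat TIR domain 5 µg mL^−1 overnight; block 0.2% BSA/PBS 1 h, 4 °C; add phage library 1 h, RT; wash ×4 PBS/0.5% Tween‐20; elute 100 mM HCl, neutralize Tris; amplify in TG1, PEG‐precipitate. Repeat to round 4; barcode PCR, NovaSeq, count reads.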

[1] = selection against MAL, rank after grouping
[2] = selection against MAL, rank before grouping
[3] = 4R selection against MAL, rank after grouping
[4] = 4R selection against MAL, rank before grouping
[5] = P3_MAL: rank by count after grouping
[6] = P3_MAL: rank by count before grouping
[7] = selection against MAL, rank by count after grouping
[8] = selection against MAL, rank by count before grouping
[9] = selection against MAL TIR, rank by count after grouping
[10] = selection against MAL TIR, rank by count before grouping
[11] = P8_MAL: rank by count after grouping
[12] = P8_MAL: rank by count before grouping

T1 sequence (P58753 79-221): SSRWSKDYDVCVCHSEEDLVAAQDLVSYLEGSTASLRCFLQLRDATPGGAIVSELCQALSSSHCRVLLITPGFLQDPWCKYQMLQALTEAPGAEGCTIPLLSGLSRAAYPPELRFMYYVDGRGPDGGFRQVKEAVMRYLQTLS

P3_MAL Rank (after) [3]: 657
P3_MAL Rank (before) [4]: 2426
Sequence: RGYLRHVRHHLQAKDH

P8_MAL Rank (after) [7]: 723
P8_MAL Rank (before) [8]: 2174
Sequence: RHNFIGYLYQALYRIG

P8_MAL Rank (after) [1]: 551
P8_MAL Rank (before) [2]: 2253
Sequence: RKFWAYLFQALANKGS

Rank (after) [5]: 187
Rank (before) [6]: 907
Sequence: RLLKWGYPWFWDRLRFA

Population: 0.0132%
Sequence: RLLKWKDALHQFHSWV

Rank (after) [5]: 110
Rank (before) [6]: 342
Sequence: RLLKWKDALYEAANLS

P3_MAL Rank (after) [7]: 701
P3_MAL Rank (before) [8]: 2516
Sequence: RLLKWKEALHQFQTWL

P3_MAL Rank (after) [1]: 518
P3_MAL Rank (before) [2]: 2525
Sequence: RLLKWKEALKQRAL

Rank (after) [5]: 177
Rank (before) [6]: 2497
Sequence: RLLKWKEALQQFHSGV

Rank (after) [5]: 148
Rank (before) [6]: 2470
Sequence: RLLKWKEALQQVHSWV

P3_MAL Rank (after) [3]: 642
P3_MAL Rank (before) [4]: 2524
Sequence: RLLKWKEALTAAANLSGW

Rank (after) [5]: 400
Rank (before) [6]: 2492
Sequence: RLLKWKKRCISFIAG

P3_MAL Rank (after) [3]: 612
P3_MAL Rank (before) [4]: 2490
Sequence: RLLKWNEELHLFHSWV

Population: 0.00338%
Sequence: RLLNWKEALHQFHSWV

Rank (after) [5]: 180
Rank (before) [6]: 2553
Sequence: RLMKWKEALHPFHSWV

Rank (after) [5]: 189
Rank (before) [6]: 2551
Sequence: RLQKWKEALHQIHSRV

P3_MAL Rank (after) [7]: 728
P3_MAL Rank (before) [8]: 2544
Sequence: RLRKWKGALHHFLSWG

P3_MAL Rank (after) [1]: 571
P3_MAL Rank (before) [2]: 2325
Sequence: RLWDRLRYLMPRNNHH

P3_MAL Rank (after) [3]: 630
P3_MAL Rank (before) [4]: 2594
Sequence: RNFAGLLYDRLTKWA

P3_MAL Rank (after) [3]: 607
P3_MAL Rank (before) [4]: 2604
Sequence: RNFAGQLAGLTLQNGDEGK

Rank (after) [11]: 392
Rank (before) [12]: 2239
Sequence: RNFGNSCVPCWANRR

P3_MAL Rank (after) [1]: 502
P3_MAL Rank (before) [2]: 2612
Sequence: RNFMSHLYQGLKNRGIFTF

The remaining lines, values behind:

Sequence: RGLLSQLRHHLQAKDH
P3_MAL Rank (after) [1]: 578
P3_MAL Rank (before) [2]: 2421

Sequence: RGVLSRLRHHLQAKDH
P3_MAL Rank (after) [1]: 551
P3_MAL Rank (before) [2]: 2427

Sequence: RHFAGLLYDRLTKTGV
Rank (after) [5]: 414
Rank (before) [6]: 2563

Sequence: RHHRGPLGSDLQYHME
P3_MAL Rank (after) [1]: 521
P3_MAL Rank (before) [2]: 2572

Sequence: RKFEAYLFQALANKGI
P8_MAL Rank (after) [9]: 208
P8_MAL Rank (before) [10]: 2257

Sequence: RKFVAYPFQALANKGI
P8_MAL Rank (after) [7]: 703
P8_MAL Rank (before) [8]: 2255

Sequence: RKGDLISDELLIAIEE
P8_MAL Rank (after) [1]: 575
P8_MAL Rank (before) [2]: 2300

Sequence: RLLKCTEALHQFHNWV
P3_MAL Rank (after) [1]: 566
P3_MAL Rank (before) [2]: 2482

Sequence: RLLKWIETLHQFHSWV
P3_MAL Rank (after) [3]: 653
P3_MAL Rank (before) [4]: 2489

Sequence: RLLKWKEALHHVLQK
P3_MAL Rank (after) [7]: 690
P3_MAL Rank (before) [8]: 2502

Sequence: RLLKWKEALHQFHSSL
Rank (after) [5]: 172
Rank (before) [6]: 2515

Sequence: RLLKWKEALHQFHSWV
Population: 0.00451%
Rank (after) [11]: 115
Rank (before) [12]: 655

Sequence: RLLKWKEALHQFIAG
P3_MAL Rank (after) [9]: 264
P3_MAL Rank (before) [10]: 2518

Sequence: RLLKWKEEMHQFHSWV
P3_MAL Rank (after) [9]: 206
P3_MAL Rank (before) [10]: 2531

Sequence: RLLKWQQAMHQFHRWV
P3_MAL Rank (after) [1]: 563
P3_MAL Rank (before) [2]: 2488

Sequence: RLLKWWDSLTQASNI
P3_MAL Rank (after) [7]: 727
P3_MAL Rank (before) [8]: 2485

Sequence: RLLNGKKRCISFIAG
P3_MAL Rank (after) [9]: 261
P3_MAL Rank (before) [10]: 2475

Sequence: RLLNWKEARHQFHSWV
P3_MAL Rank (after) [9]: 243
P3_MAL Rank (before) [10]: 2479

Sequence: RLQECKEALHQFHSWV
P3_MAL Rank (after) [7]: 737
P3_MAL Rank (before) [8]: 2549

Sequence: RLQEWRETLCQGHSRV
P3_MAL Rank (after) [3]: 650
P3_MAL Rank (before) [4]: 2550

Sequence: RLRKWKEALHQFHSWG
P3_MAL Rank (after) [3]: 636
P3_MAL Rank (before) [4]: 2547

Sequence: RLRKWKEALQQFHSWV
Rank (after) [5]: 139
Rank (before) [6]: 2548

Sequence: RNFGVYLFQALANKGI
Rank (after) [11]: 409
Rank (before) [12]: 2238

Sequence: RNFMAYLFQALAHKGI
P8_MAL Rank (after) [9]: 202
P8_MAL Rank (before) [10]: 2241

Sequence: RNFVADLFPALPNKGI
P8_MAL Rank (after) [1]: 566
P8_MAL Rank (before) [2]: 2232

Sequence: RNFVADLFQALADKGI
P8_MAL Rank (after) [3]: 666
P8_MAL Rank (before) [4]: 2308

Sequence: RNFVADLYQALANKGI
Rank (after) [11]: 131
Rank (before) [12]: 2186

Sequence: RNFVAHLFQALANKAI
P8_MAL Rank (after) [3]: 667
P8_MAL Rank (before) [4]: 2233

Sequence: RNFVAQLKRALANKAI
P8_MAL Rank (after) [1]: 499
P8_MAL Rank (before) [2]: 2310
